ChEMBL document CHEMBL1145787, “Synthesis and structure-activity relationship of N-substituted 4-arylsulfonylpiperidine-4-hydroxamic acids as novel, orally active matrix metalloproteinase inhibitors for the treatment of osteoarthritis” (J Med Chem, 2003)

Experiments:
[1] = molecular target: Matrix metalloproteinase-9 (Homo sapiens, UniProt P14780); assay: In vitro inhibitory activity against matrix metalloprotease-9.
[2] = In vivo inhibition of Matrix metalloprotease enzyme by Sponge-wrapped cartilage assay, value is relative to activity of RS-130830 (40+/-2) at 10 mg/kg. po. bid; type: functional
[3] = In vivo inhibitory activity against Matrix metalloprotease enzyme by dialysis implant assay, value is relative to activity of CGS-27023 (43+/-2) at 25 mg/kg. po; type: functional
Collagenase 3 = Collagenase 3 (Homo sapiens, UniProt P45452)
[4] = molecular target: Disintegrin and metalloproteinase domain-containing protein 17 (Homo sapiens, UniProt P78536); assay: In vitro inhibitory activity against tumor necrosis factor alpha converting enzyme (TACE).
Sequence of Disintegrin and metalloproteinase domain-containing protein 17 (P78536 whole entry, the tested form may be a part): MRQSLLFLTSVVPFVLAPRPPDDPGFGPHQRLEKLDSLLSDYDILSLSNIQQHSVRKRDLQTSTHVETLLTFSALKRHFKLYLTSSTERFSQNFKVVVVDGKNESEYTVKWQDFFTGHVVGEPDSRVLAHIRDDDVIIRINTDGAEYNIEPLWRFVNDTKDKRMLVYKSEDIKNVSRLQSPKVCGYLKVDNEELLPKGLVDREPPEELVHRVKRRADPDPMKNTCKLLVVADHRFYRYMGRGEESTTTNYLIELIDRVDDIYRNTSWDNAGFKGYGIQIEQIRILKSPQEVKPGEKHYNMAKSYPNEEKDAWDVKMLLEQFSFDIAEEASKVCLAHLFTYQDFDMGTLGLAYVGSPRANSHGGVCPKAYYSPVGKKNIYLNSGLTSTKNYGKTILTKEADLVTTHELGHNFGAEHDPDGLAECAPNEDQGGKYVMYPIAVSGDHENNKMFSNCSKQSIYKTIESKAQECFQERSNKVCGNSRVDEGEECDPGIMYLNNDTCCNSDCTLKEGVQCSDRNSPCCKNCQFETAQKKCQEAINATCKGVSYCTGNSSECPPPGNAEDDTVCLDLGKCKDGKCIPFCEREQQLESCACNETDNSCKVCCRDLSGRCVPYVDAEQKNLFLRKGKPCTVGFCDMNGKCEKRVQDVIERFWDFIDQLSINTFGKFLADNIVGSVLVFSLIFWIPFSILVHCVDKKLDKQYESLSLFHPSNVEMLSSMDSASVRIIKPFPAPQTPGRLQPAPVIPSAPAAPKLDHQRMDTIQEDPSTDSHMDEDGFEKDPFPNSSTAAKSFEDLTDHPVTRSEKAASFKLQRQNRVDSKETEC

[5] = In vivo inhibitory activity against Matrix metalloprotease enzyme by dialysis implant assay, value are relative to activity of CGS-27023 (71+/-2) at 25 mg/kg. po; type: functional
Interstitial collagenase = molecular target: T1, Interstitial collagenase (Homo sapiens, UniProt P03956); assay: In vitro inhibitory activity against matrix metalloprotease-1
T1 sequence (P03956 whole entry): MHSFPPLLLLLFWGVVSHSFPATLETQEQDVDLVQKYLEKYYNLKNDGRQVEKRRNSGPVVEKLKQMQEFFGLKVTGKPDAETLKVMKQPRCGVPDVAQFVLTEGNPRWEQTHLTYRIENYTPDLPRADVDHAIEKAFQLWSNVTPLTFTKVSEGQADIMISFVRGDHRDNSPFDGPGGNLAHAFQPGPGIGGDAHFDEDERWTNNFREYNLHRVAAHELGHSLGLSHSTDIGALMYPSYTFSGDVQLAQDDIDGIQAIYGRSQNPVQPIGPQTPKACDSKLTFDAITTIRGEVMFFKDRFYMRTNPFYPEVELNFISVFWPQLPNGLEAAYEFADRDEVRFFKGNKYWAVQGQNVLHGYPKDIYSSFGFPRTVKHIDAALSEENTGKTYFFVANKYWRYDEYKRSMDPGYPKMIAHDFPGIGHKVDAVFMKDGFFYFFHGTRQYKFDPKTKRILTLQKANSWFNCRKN

Sequence of Matrix metalloproteinase-9 (P14780 whole entry): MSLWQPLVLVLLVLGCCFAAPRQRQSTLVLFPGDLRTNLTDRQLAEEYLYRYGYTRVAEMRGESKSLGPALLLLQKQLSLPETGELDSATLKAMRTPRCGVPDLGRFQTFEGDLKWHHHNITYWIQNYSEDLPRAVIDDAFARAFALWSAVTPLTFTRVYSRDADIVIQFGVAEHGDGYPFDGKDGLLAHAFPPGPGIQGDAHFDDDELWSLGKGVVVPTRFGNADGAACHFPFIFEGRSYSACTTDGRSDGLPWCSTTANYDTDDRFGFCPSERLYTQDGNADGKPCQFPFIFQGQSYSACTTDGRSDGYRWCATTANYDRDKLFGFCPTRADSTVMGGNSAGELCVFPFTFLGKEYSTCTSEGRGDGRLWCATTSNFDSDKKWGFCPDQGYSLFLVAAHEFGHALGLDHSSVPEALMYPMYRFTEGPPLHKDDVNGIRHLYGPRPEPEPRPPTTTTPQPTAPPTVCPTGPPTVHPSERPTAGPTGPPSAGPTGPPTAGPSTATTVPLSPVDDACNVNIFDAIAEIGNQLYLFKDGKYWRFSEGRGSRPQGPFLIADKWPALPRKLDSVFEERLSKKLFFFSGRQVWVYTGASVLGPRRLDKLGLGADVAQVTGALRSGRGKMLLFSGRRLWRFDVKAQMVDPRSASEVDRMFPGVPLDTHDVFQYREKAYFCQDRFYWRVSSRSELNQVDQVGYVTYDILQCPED

| Compound | IC50 [1] [nM] | inhibition in vivo at 10 mg/kg [2] [%] | inhibition in vivo at 25 mg/kg [3] [%] | IC50 (Collagenase 3) [nM] | IC50 [4] [nM] | inhibition in vivo at 25 mg/kg [5] [%] | IC50 (Interstitial collagenase) [nM] |
| --- | --- | --- | --- | --- | --- | --- | --- |
| CCCCOc1ccc(S(=O)(=O)C2(C(=O)NO)CCN(C)CC2)cc1 | 10 | 12 | 64 | 2 | – | – | – |
| O=C(NO)C1(S(=O)(=O)c2ccc(-c3ccco3)cc2)CCN(Cc2ccccc2)CC1 | 3 | – | – | – | 416 | 95 | 40 |
